Experimental data taken from US9315487B2, “Tetrahydroquinoline derivatives useful as bromodomain inhibitors” (GlaxoSmithKline LLC, priority 2011, dated 2016).
Several values for one entry are separate records, joined by “and”; a condition that tells them apart may be missing. Identical values can stand only once.

Legend:
[1] = system: LPS induced IL-6 secretion from whole blood; assay: Measurement of LPS induced IL-6 secretion from whole blood; assay type: cell-based; details: 24 h, LPS 200 ng/ml, IL-6 by immunoassay
Method: Measurement of LPS Induced IL-6 Secretion from Whole Blood
Activation of monocytic cells by agonists of toll-like receptors such as bacterial lipopolysaccharide (LPS) results in production of key inflammatory mediators including IL-6. Such pathways are widely considered to be central to the pathophysiology of a range of auto-immune and inflammatory disorders.
Compounds to be tested are diluted to give a range of appropriate concentrations of which 1 μl of the diluted stocks is added to a 96 well plate. Following addition of whole blood (130 μl) the plates are incubated at 37 degrees (5% CO2) for 30 min before the addition of 10 μl of 2.8 ug/ml LPS, diluted in complete RPMI 1640 (final concentration=200 ng/ml), to give a total volume of 140 ul per well. After further incubation for 24 hours at 37 degrees, 140 μl of PBS are added to each well. The plates are sealed, shaken for 10 minutes and then centrifuged (2500 rpm×10 min). 100 μl of the supernatant are removed and IL-6 levels assayed by immunoassay (typically by MesoScale Discovery technology) either immediately or following storage at −20 degrees. Concentration response curves for each compound was generated from the data and an IC50 value was calculated

[2] = target: T1, Bromodomain BRD2, BRD3 and BRD4; assay: Fluorescence Anisotropy Binding Assay; set-up: species or system Human; details: tested in one or more of the BRD2, BRD3, BRD4 fluorescence anisotropy assays
T1 construct: fused on or other part: six-His tag at the N-terminus
Text: Fluorescence Anisotropy Binding Assay
The binding of the compounds of formula (I) to Bromodomain BRD2, BRD3 and BRD4 may be assessed using a Fluorescence Anisotropy Binding Assay.
All data was normalized to the mean of 16 high and 16 low control wells on each plate. A four parameter curve fit of the following form was then applied: y=a+((b−a)/(1+(10^x/10^c)^d)
Where ‘a’ is the minimum, ‘b’ is the Hill slope, ‘c’ is the pIC50 and ‘d’ or is the maximum.
Recombinant Human Bromodomains (Bromodomain BRD2 (1-473), Bromodomain BRD3 (1-435) and Bromodomain BRD4 (1-477)) were expressed in E. coli cells (in pET15b vector) with a six-His tag at the N-terminal. The His-tagged Bromodomain was extracted from E. coli cells using 0.1 mg/ml lysozyme and sonication. […]
All components were dissolved in buffer composition of 50 mM HEPES pH7.4, 150 mm NaCl and 0.5 mM CHAPS with final concentrations of Bromodomain 2, 75 nM, fluorescent ligand 5 nM. […] Fluorescence anisotropy was read in Envision (λex=485 nm, λEM=530 nm; Dichroic −505 nM). […]
All components were dissolved in buffer of composition 50 mM HEPES pH7.4, 150 mm NaCl and 0.5 mM CHAPS with final concentrations of Bromodomains 3 75 nM, fluorescent ligand 5 nM. […] Fluorescence anisotropy was read in Envision (λex=485 nm, λEM=530 nm; Dichroic −505 nM). […]

Bromodomain BRD4 = target: T2, Bromodomain BRD4 (Homo sapiens, UniProt O60885); assay: Time Resolved Fluorescence Resonance Energy Transfer (TR-FRET) assay, BRD4; assay type: binding; details: BRD4 (1-477), acetylated histone peptide
T2 construct: BRD4 (1-477); made in house; host or cells: E. coli (pET15b vector)
Method: (§1) Time Resolved Fluorescence Resonance […] Transfer (TR-FRET) Assay
(§2) The binding of the compounds of formula (I) to Bromodomains BRD2, BRD3 and BRD4 was assessed using a time resolved fluorescent resonance energy transfer binding assay, that measures the binding of an acetylated histone peptide to the bromodomain protein.
(§3) The bromodomain protein, histone peptide and a variable concentration of test compound are incubated together to reach thermodynamic equilibrium.
(§4) The protected peptide was assembled on a solid-phase synthesiser using preloaded Wang resin and utilising standard Fmoc synthesis protocols. The C-terminal lysine was protected by a hyper acid-labile group allowing for its selective removal at the end of the assembly and attachment of the biotin. The crude peptide was obtained after cleavage from the resin with a mixture of trifluoroacetic acid (TFA), triisopropylsilane and water (95:2.5:2.5) for 3 h at room temperature and was then purified using a C18 reverse-phase column utilising a 0.1% TFA-buffered water/acetonitrile gradient. The resulting fractions were analysed and fractions which were >95% pure by analytical HPLC and giving the correct mw (by MALDiTOF mass spectroscopy) were pooled and freeze dried. The final material was analysed by HPLC to confirm purity.
(§5) Recombinant Human Bromodomains (BRD2 (1-473), BRD3 (1-435) and BRD4 (1-477)) were expressed in E. coli cells (in pET15b vector) with a six-His tag at the N-terminal. The His-tagged Bromodomain was extracted from E. coli cells using sonication and purified using a nickel sepharose 6FF column, the proteins were washed and then eluted with 50 mM Tris-Hcl pH8.0. 300 mM NaCl, 1 mM β-mercaptoethanol and 20 mM Imidazole. Further purification was performed by affinity chromatography on a HisTRAP HP column, eluting with a linear 0-500 mM […] gradient, over 20 column volumes. Final purification was completed by Superdex 200 prep grade size exclusion column. Purified protein was stored at −80 C in 20 mM HEPES pH 7.5 and 100 mM NaCl. Protein identity was confirmed by peptide mass fingerprinting and predicted molecular weight confirmed by mass spectrometry.
(§6) Protocol for Bromodomain BRD2, 3 and 4 Assays:
(§7) All assay components were dissolved in buffer composition of 50 mM HEPES pH7.4, 50 mM NaCl and 0.5 mM CHAPS. The final concentration of bromodomain proteins were 100 nM and the histone peptide was 300 nM, these components are premixed and allowed to equilibrate for 1 hour in the dark. 8 μl of this reaction mixture was added to all wells containing 50 nl of various concentrations of test compound or DMSO vehicle (0.5% final) in Greiner 384 well black low volume microtitre plates and incubated in dark for 60 mins at room temperature. […] detection mixture containing anti-6his XL665 labeled antibody and streptavidin labeled with europium cryptate was added to all wells and a further dark incubation of at least 30 mins was performed. Plates were then read on the Envision platereader, (λex=317 nm, donor λEM=615 nm; acceptor λEM=665 nm; Dichroic LANCE dual). Time resolved fluorescent intensity measurements were made at both emission wavelengths and the ratio of acceptor/donor was calculated and used for data analysis. All data was normalized to the mean of 16 high and 16 low control wells on each plate. A four parameter curve fit of the following form was then applied: y=a+((b−a)/(1+(10^x/10^c)^d)
(§8) Where ‘a’ is the minimum, ‘b’ is the Hill slope, ‘c’ is the pIC50 and ‘d’ is the maximum.

[3] = system: W12 cells (episomal HPV16 genomes); assay: Measurement of HPV infected cells: W12 cell viability; assay type: cell-based; details: Human papillomavirus 16, 48 h, 2 days
Method: (§9) Measurement of HPV Infected Cells The […] cell clone #20850, derived from a low grade cervical […] (Stanley et al., Int. J. Cancer. V. 43. p. 672-676. 1989), carries episomal HPV16 genomes, maintained at approximately 100 copies per cell. Epithelial cell line C33A, which is not infected with any HPV strain was used as a negative control cell to assess non-specific cytotoxicity. […] and C33A cells were cultured with the compound of Example 2 for 2 days and viable cell content monitored by assaying [ATP] at end of this period. Data was normalised to DMSO control treated cells on day 2.

Bromodomain BRD3 = target: T3, Bromodomain BRD3 (Homo sapiens, UniProt Q15059); assay: Time Resolved Fluorescence Resonance Energy Transfer (TR-FRET) assay, BRD3; assay type: binding; details: BRD3 (1-435), acetylated histone peptide
T3 construct: BRD3 (1-435); made in house; host or cells: E. coli (pET15b vector)
T3 sequence (Q15059 1-435): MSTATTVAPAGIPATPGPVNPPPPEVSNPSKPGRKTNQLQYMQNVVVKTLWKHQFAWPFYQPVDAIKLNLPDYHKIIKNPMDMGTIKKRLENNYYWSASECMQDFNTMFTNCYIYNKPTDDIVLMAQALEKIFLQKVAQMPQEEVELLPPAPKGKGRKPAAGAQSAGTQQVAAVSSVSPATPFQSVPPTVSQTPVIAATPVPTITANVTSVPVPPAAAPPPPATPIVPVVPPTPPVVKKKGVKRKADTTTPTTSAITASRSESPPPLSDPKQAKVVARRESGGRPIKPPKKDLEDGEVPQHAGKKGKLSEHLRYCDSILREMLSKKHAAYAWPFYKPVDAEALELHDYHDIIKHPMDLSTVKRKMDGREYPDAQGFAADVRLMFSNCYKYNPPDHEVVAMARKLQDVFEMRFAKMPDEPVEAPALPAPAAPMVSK
Method: as §1, §2, §3, §4, §5, §6, §7, §8

Bromodomain BRD2 = target: T4, Bromodomain BRD2 (Homo sapiens, UniProt P25440); assay: Time Resolved Fluorescence Resonance Energy Transfer (TR-FRET) assay, BRD2; assay type: binding; details: BRD2 (1-473), acetylated histone peptide
T4 construct: BRD2 (1-473); made in house; host or cells: E. coli (pET15b vector)
T4 sequence (P25440 1-473): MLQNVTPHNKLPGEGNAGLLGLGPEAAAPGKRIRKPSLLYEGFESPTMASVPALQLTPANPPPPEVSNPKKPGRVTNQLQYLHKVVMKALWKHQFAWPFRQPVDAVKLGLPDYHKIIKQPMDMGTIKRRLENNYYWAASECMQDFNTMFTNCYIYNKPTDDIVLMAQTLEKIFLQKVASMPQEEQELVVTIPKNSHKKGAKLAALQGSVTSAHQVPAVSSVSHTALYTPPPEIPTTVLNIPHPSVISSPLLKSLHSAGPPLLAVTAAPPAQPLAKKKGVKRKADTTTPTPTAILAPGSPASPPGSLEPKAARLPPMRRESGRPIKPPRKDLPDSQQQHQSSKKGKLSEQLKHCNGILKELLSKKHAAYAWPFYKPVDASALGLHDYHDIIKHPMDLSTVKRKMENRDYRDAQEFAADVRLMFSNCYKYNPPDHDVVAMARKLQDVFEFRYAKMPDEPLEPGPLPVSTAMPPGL
Method: as §1, §2, §3, §4, §5, §6, §7, §8

C33A cells = assay: Measurement of HPV infected cells: C33A negative control cell viability; assay type: cell-based; details: 2 days, [ATP] assay
Method: as §9

[4] = as above; assay type: cell-based; details: human, 3 μM, normalised to DMSO control, read-out: Viability at the maximal tested concentration
Method: as §9

IC50 [1] [µM] | pIC50 [2] | IC50 (Bromodomain BRD4) | IC50 (Bromodomain BRD3) | IC50 (Bromodomain BRD2) | Structure (SMILES) | viability at 3 µM ([3]; 3 μM, normalised to DMSO control, read-out: Viability at the maximal tested concentration) [%] | IC50 ([3]; [ATP] assay, n=4, read-out: mean pIC50 value, W12 cell viability (converted)) [µM] | effect on C33A negative control cells (viability) (C33A cells) | viability at 2 days, 3 µM [4] [%]
0.126 to 1 | – | 0.0631 to 0.316 µM | 0.0631 to 0.316 µM | 0.0631 to 0.316 µM | COCCn1cc(-c2ccc3c(c2)[C@H](Nc2ccc(Cl)cn2)C[C@H](C)N3C(C)=O)cn1 [Example 5, 1-((2S,4R)-4-((5-chloropyridin-2-yl)amino)-6-(1-(2-methoxyethyl)-1H-pyrazol-4-yl)-2-methyl-3,4-dihydroquinolin-1(2H)-yl)ethanone] | – | – | – | –
0.126 to 1 | – | 0.0631 to 0.316 µM | 0.0631 to 0.316 µM | 0.0631 to 0.316 µM | COCCn1cc(-c2ccc3c(c2)[C@H](Nc2ccc(C)cn2)C[C@H](C)N3C(C)=O)cn1 [Example 6, 1-((2S,4R)-6-(1-(2-methoxyethyl)-1H-pyrazol-4-yl)-2-methyl-4-((5-methylpyridin-2-yl)amino)-3,4-dihydroquinolin-1(2H)-yl)ethanone] | – | – | – | –
0.126 to 1 | – | 0.0631 to 0.316 µM | 0.0631 to 0.316 µM | 0.0631 to 0.316 µM | COCCn1cc(-c2ccc3c(c2)[C@H](Nc2cccc(Cl)c2)C[C@H](C)N3C(C)=O)cn1 [Example 7, 1-((2S,4R)-4-((3-chlorophenyl)amino)-6-(1-(2-methoxyethyl)-1H-pyrazol-4-yl)-2-methyl-3,4-dihydroquinolin-1(2H)-yl)ethanone] | – | – | – | –
0.126 to 1 | – | 0.0631 to 0.316 µM | 0.0631 to 0.316 µM | 0.0631 to 0.316 µM | COCCn1cc(-c2ccc3c(c2)[C@H](Nc2cnc(C)cn2)C[C@H](C)N3C(C)=O)cn1 [Example 8, 1-((2S,4R)-6-(1-(2-methoxyethyl)-1H-pyrazol-4-yl)-2-methyl-4-((5-methylpyrazin-2-yl)amino)-3,4-dihydroquinolin-1(2H)-yl)ethanone] | – | – | – | –

Further lines, the compound ahead of its results:

Structure (SMILES) | IC50 [1] [µM] | pIC50 [2] | IC50 (Bromodomain BRD4) | IC50 (Bromodomain BRD3) | IC50 (Bromodomain BRD2) | viability at 3 µM ([3]; 3 μM, normalised to DMSO control, read-out: Viability at the maximal tested concentration) [%] | IC50 ([3]; [ATP] assay, n=4, read-out: mean pIC50 value, W12 cell viability (converted)) [µM] | effect on C33A negative control cells (viability) (C33A cells) | viability at 2 days, 3 µM [4] [%]
COCCn1cc(-c2ccc3c(c2)[C@H](NC(=O)OC(C)C)C[C@H](C)N3C(C)=O)cn1 [Example 1, 1-methylethyl ((2S,4R)-1-acetyl-2-methyl-6-{1-[2-(methyloxy)ethyl]-1H-pyrazol-4-yl}-1,2,3,4-tetrahydro-4-quinolinyl)carbamate] | 0.126 to 1 | ≥ 6.5 | – | – | – | – | – | – | –
COCCn1cc(-c2ccc3c(c2)[C@H](Nc2ccc(C#N)cn2)C[C@H](C)N3C(C)=O)cn1 [Example 2, 6-(((2S,4R)-1-acetyl-6-(1-(2-methoxyethyl)-1H-pyrazol-4-yl)-2-methyl-1,2,3,4-tetrahydroquinolin-4-yl)amino)nicotinonitrile] | 0.2 | – | 0.0631 to 0.126 µM and 0.0631 to 0.316 µM | 0.0631 to 0.126 µM and 0.0631 to 0.316 µM | 0.0631 to 0.126 µM and 0.0631 to 0.316 µM | 34.8 | 0.0813 | limited effect | 73.5
COCCn1cc(-c2ccc3c(c2)[C@H](Nc2ccc(C#N)cn2)C[C@H](C)N3C(C)=O)nn1 [Example 3, 6-(((2S,4R)-1-acetyl-6-(1-(2-methoxyethyl)-1H-1,2,3-triazol-4-yl)-2-methyl-1,2,3,4-tetrahydroquinolin-4-yl)amino)nicotinonitrile] | 0.126 to 1 | – | 0.0631 to 0.316 µM | 0.0631 to 0.316 µM | 0.0631 to 0.316 µM | – | – | – | –
COCCn1ncc(-c2ccc3c(c2)[C@H](Nc2ccc(C#N)cn2)C[C@H](C)N3C(C)=O)n1 [Example 4, 6-(((2S,4R)-1-acetyl-6-(2-(2-methoxyethyl)-2H-1,2,3-triazol-4-yl)-2-methyl-1,2,3,4-tetrahydroquinolin-4-yl)amino)nicotinonitrile] | 0.126 to 1 | – | 0.0631 to 0.316 µM | 0.0631 to 0.316 µM | 0.0631 to 0.316 µM | – | – | – | –
